The text below walks through data of US20070259923A1, “MGluR5 modulators IV” (AstraZeneca AB, priority 2006, published 2007).

One data set deals with T1, human mGluR5d (Homo sapiens, UniProt P41594).
T1 construct: expressed in transfected cells; the IP3 assay names GHEK cells stably expressing human mGluR5d
Description: FLIPR assay, mGluR5 antagonism (intracellular calcium mobilization). It is filed as cell-based. As to conditions: cells expressing human mGluR5d; read-out: FLIPR hmGluR5d. The text has this:
The properties of the compounds of the invention can be analyzed using standard assays for pharmacological activity. Examples of glutamate receptor assays are well known in the art as described in for example Aramori et al., Neuron 8:757 (1992), Tanabe et al., Neuron 8:169 (1992), Miller et al., J. Neuroscience 15: 6103 (1995), Balazs, et al., J. Neurochemistry 69:151 (1997). The methodology described in these publications is incorporated herein by reference. Conveniently, the compounds of the invention can be studied by means of an assay (FLIPR) that measures the mobilization of intracellular calcium, [Ca^2+]i in cells expressing mGluR5 or another assay (IP3) that measures inositol phosphate turnover.
Cells expressing human mGluR5d as described in WO97/05252 are seeded at a density of 100,000 cells per well on collagen coated clear bottom 96-well plates with black sides and experiments are done 24 h following seeding. […] The fluorescence signal is sampled 50 times at 1 second intervals followed by 3 samples at 5 second intervals immediately after each of the two additions. Responses are measured as the difference between the peak height of the response to agonist, less the background fluorescence within the sample period. […]
For orientation: Calcium flux is commonly read through the fluorescence of an indicator in the cells.

Data set [1] in a line: Determination of brain to plasma ratio in rat. It is filed as in vivo. As to conditions: brain and plasma, female Sprague Dawley rats, read-out: Brain/Plasma Ratio of compound in Rat. As to the method: Brain to plasma ratios are estimated in female Sprague Dawley rats. The compound is dissolved in water or another appropriate vehicle. For determination of brain to plasma ratio the compound is administrated as a subcutaneous, or an intravenous bolus injection, or an intravenous infusion, or an oral administration. At a predetermined time point after the administration a blood sample is taken with cardiac puncture. The rat is terminated by cutting the heart open, and the brain is immediately retained. The blood samples are collected in heparinized tubes and centrifuged within 30 minutes, in order to separate the plasma from the blood cells. The plasma is transferred to 96-well plates and stored at −20° C. until analysis. The brains are divided in half, and each half is placed in a pre-tarred tube and stored at −20° C. until analysis. Prior to the analysis, the brain samples are thawed and 3 ml/g brain tissue of distilled water is added to the tubes. The brain samples are sonicated in an ice bath until the samples are homogenized. Both brain and plasma samples are precipitated with acetonitrile. After centrifugation, the supernatant is diluted with 0.2% formic acid. […] After reconstitution of the residuals the samples are ready for injection onto the HPLC column.

T1 sequence (P41594 21-942 isoform P41594-3 limits assumed): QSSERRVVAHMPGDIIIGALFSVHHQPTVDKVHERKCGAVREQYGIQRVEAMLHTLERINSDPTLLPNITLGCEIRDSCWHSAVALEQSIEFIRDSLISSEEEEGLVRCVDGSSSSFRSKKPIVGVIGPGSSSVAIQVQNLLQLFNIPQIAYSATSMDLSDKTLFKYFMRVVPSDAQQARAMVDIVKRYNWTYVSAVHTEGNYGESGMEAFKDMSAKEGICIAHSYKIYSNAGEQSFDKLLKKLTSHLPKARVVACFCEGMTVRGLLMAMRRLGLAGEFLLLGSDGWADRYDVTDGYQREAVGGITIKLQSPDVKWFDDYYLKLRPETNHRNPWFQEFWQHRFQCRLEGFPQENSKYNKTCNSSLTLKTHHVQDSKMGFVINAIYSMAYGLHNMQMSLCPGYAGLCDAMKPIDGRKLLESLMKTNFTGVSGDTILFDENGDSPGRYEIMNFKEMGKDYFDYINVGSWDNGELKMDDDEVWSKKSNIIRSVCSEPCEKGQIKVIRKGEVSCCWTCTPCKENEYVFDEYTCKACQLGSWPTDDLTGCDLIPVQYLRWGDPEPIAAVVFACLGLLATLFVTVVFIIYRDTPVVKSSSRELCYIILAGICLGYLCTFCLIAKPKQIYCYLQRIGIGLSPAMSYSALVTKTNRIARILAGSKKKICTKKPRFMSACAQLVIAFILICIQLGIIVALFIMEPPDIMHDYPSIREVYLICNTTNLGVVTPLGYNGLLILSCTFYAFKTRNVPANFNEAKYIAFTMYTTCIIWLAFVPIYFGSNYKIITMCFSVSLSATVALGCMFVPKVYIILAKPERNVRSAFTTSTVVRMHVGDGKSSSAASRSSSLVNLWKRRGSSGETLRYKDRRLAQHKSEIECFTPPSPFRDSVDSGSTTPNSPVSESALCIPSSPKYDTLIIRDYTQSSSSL

Take `Cc1cc(-c2nnc(N3CCC[C@@H]3c3cc(-c4cccc(C#N)c4)on3)n2C)ccn1` [Example 12.4, 3-(3-{(R)-1-[4-Methyl-5-(2-methyl-pyridin-4-yl)-4H-[1,2,4]triazol-3-yl]-pyrrolidin-2-yl}-isoxazol-5-yl)-benzonitrile]: the IC50 on human mGluR5d was 47 nM. In addition, the Kp in data set [1] was determined as 0.06.

Consider `Cn1c(-c2cccnc2)nnc1N1CCC[C@@H]1c1cc(-c2cccc(C#N)c2)on1` [Example 12.6, 3-{3-[(R)-1-(4-Methyl-5-pyridin-3-yl-4H-[1,2,4]triazol-3-yl)-pyrrolidin-2-yl]-isoxazol-5-yl}-benzonitrile], for which the IC50 on human mGluR5d came out at 86 nM. In data set [1], the Kp worked out at 0.05.
